US8846675B2, “N-linked heterocyclic receptor agonists for the treatment of diabetes and metabolic disorders” (Cymabay Therapeutics, Inc., priority 2007, dated 2014)
Structures can show the parent of a compound that is named as a salt.

molecular target: T1, IC-GPCR2 (Homo sapiens, UniProt Q8TDV5); assay: Stimulation of cAMP in CHO cell line stably expressing IC-GPCR2 (HTRF cAMP dynamic kit); type: cell-based; settings: 3 μM compound; relative to maximal activity of 5-Ethyl-2-{4-[4-(4-tetrazol-1-yl-phenoxymethyl)-thiazol-2-yl]-piperidin-1-yl}-pyrimidine (=100%); IC-GPCR2 stably expressing CHO cells, 30 minutes
T1 construct: expressed in transfected cells
T1 sequence (Q8TDV5 1-335 S309L): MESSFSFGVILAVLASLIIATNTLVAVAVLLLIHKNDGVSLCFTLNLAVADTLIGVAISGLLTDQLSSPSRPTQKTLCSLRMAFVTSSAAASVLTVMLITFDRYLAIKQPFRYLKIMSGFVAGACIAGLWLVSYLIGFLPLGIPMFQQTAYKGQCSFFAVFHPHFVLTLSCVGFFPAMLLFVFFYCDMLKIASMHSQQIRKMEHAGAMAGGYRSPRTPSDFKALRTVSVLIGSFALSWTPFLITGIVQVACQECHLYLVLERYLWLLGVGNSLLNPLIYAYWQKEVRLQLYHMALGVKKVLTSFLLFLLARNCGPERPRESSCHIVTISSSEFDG
Experimental: This assay was developed using a stable cell line expressing IC-GPCR-2, generated as follows. IC-GPCR2 (Seq. ID No. 1) was cloned into Gateway pDEST 40vector (Invitrogen), using the Gateway cloning system (invitrogen) according to the manufacturers instructions. A stable cell line was generated by transfecting a 10 cm plate of CHO cells (source) with 8 ug of this construct using Transit-CHO transfection kit (Mirus). CHO cells were plated the day prior to transfection at a density of 3,000,000 cells/plate. Clones were selected using the antibiotic G418 at 500 ug/ml. 23 clones were picked and assayed for the expression of the receptor by measuring changes in intracellular cAMP levels in response to an IC-GPCR2 agonist (Arena 51).
To measure cAMP activity in response to IC-GPCR2 agonist, the clones were plated in 96 well plates at 17500 cells per well. On the day after plating, cells were incubated with the IC-CPCR2 agonist at […] for 30 minutes in Ham's F12 Media (Gibco) with 0.04% DMSO. cAMP was measured using the cAMP dynamic kit from C is Bio (Bedford, Mass.) according to the manufacturers instructions. Briefly, cells were lysed, and cAMP levels determined by competitive immunoassay using D2 labeled cAMP, and europium cryptate tagged anti cAMP antibody. When in close proximity, the D2 and europium cryptate undergo fluorescence resonance energy transfer (FRET), which is measured as a fluorescence ratio (665 nm/620 nm). Unlabelled cAMP in the cell lysatc competed with the D2 labeled cAMP for the europium crypate labeled antibody. The resulting decrease in FRET signal corresponded to intracellular cAMP levels. Fluorescence was read on a BMG Labtech PHERAstar, software version 1.50.
The clone with the greatest response to IC-GPCR2 agonist was selected for the screening assay.
Compounds were dissolved in 100% DMSO to a concentration of […] to provide stock solutions. To determine activity against IC-GPCR2, compounds were incubated with IC-GPCR2 stably expressing cells (described above), at 6-8 concentrations ranging from 0.00003 to 10 micromolar, in 96 well plates, in 50 ul of Hams F12 media for 30 minutes. Cells were plated at 17500 cells per well 1 day before running the assay. All compounds were also screened against the parental CHO cells. cAMP was measured using the cAMP dynamic kit from Cis Bio (Bedford, Mass.), according to the manufacturer's instructions. Briefly, cells were lysed and cAMP levels determined by competitive immunoassay using D2 labeled cAMP, and europium cryptate tagged anti cAMP antibody. When in close proximity, the D2 and europium cryptate undergo fluorescence resonance energy transfer (FRET), which is measured as a fluorescence ratio (665 nm/620 nm). Unlabelled cAMP in the cell lysate competed with the D2 labeled cAMP for the europium crypate labeled antibody. The resulting decrease in FRET signal corresponded to intracellular cAMP levels
To determine percent activity for a tested compound, the FRET signal value obtained at a particular concentration are compared to the Maximal FRET signal value obtained for 5-Ethyl-2-{4-[4-(4-tetrazol-1-yl-phenoxymethyl)-thiazol-2-yl]-piperidin-1-yl}-pyrimidine. The maximal activity of 5-Ethyl-2-{4-[4-(4-tetrazol-1-yl-phenoxymethyl)-thiazol-2-yl]-piperidin-1-yl}-pyrimidine is designated as 100% activity. Typically, the concentration of 5-Ethyl-2-{4-[4-(4-tetrazol-1-yl-phenoxymethyl)-thiazol-2-yl]-piperidin-1-yl}-pyrimidine in the assay was approximately 0.1 μM. The synthesis of 5-Ethyl-2-{4-[4-(4-tetrazol-1-yl-phenoxymethyl)-thiazol-2-yl]-piperidin-1-yl}-pyrimidine is disclosed in co-owned pending U.S. patent application Ser. No. 11/964,461, herein incorporated by reference. Activities of compounds that were tested are shown in Table 1 below and are expressed as % activity at 3 μM compound compared to the maximal activity of 5-Ethyl-2-{4-[4-(4-tetrazol-1-yl-phenoxymethyl)-thiazol-2-yl]-piperidin-1-yl}-pyrimidine at 3 μM.

SMILES	% activity at 3 μM [%]
O=S(=O)(c1c[nH]cn1)N1CCC(n2ncc(COc3ccc(-n4cnnn4)nc3)n2)CC1 [Example 40, 5-((2-(1-(1H-Imidazol-4-ylsulfonyl)piperidin-4-yl)-2H-1,2,3-triazol-4-yl)methoxy)-2-(1H-tetrazol-1-yl)pyridine]	7.10
CCCCCc1cnc(N2CCC(n3ncc(COc4ccc(-n5cnnn5)nc4)n3)CC2)nc1 [Example 78, 2-(4-(4-((6-(1H-tetrazol-1-yl)pyridin-3-yloxy)methyl)-2H-1,2,3-triazol-2-yl)piperidin-1-yl)-5-pentylpyrimidine]	57.13
COC(=O)[C@H]1C[C@H](n2ncc(COc3ccc(-n4cnnn4)nc3)n2)CCN1C(=O)OC(C)(C)C (relative stereo) [Example 59]	33.25
C[C@H](N)C(=O)N1CCC(n2ncc(COc3ccc(-n4cnnn4)nc3)n2)CC1 [Example 55, (S)-1-(4-(4-((6-(1H-tetrazol-1-yl)pyridin-3-yloxy)methyl)-2H-1,2,3-triazol-2-yl)piperidin-1-yl)-2-aminopropan-1-one hydrochloride]	31.89
Cc1sc(OCc2cnn(C3CCN(c4ncc(Cl)cn4)CC3)n2)nc1-c1ccncc1 [Example 91, 2-((2-(1-(5-Chloropyrimidin-2-yl)piperidin-4-yl)-2H-1,2,3-triazol-4-yl)methoxy)-5-methyl-4-(pyridin-4-yl)thiazole]	5.82
CS(=O)(=O)c1ccc(OCc2nnn(C3CCN(c4ncc(Cl)cn4)CC3)n2)c(F)c1 [Example 17, 5-Chloro-2-{4-[5-(2-fluoro-4-methanesulfonyl-phenoxymethyl)-tetrazol-2-yl]-piperidin-1-yl}-pyrimidine]	68.23
CC(C)(C)OC(=O)N1CCC(n2ncc(COc3ccc(S(C)(=O)=O)cc3F)n2)CC1 [Example 4, 4-[4-(2-Fluoro-4-methanesulfonyl-phenoxymethyl)-[1,2,3]triazol-2-yl]-piperidine-1-carboxylic acid tert-butyl ester]	79.18
CS(=O)(=O)c1ccc(OCc2cnn(C3CCN(c4ncc(Cl)cn4)CC3)n2)c(F)c1 [Example 13, 5-Chloro-2-{4-[4-(2-fluoro-4-methanesulfonyl-phenoxymethyl)-[1,2,3]triazol-2-yl]-piperidin-1-yl}-pyrimidine]	61.30
CCOC(=O)c1cnc(N2CCC(n3ncc(COc4ccc(-n5cnnn5)nc4)n3)CC2)s1 [Example 81, Ethyl 2-(4-(4-((6-(1H-tetrazol-1-yl)pyridin-3-yloxy)methyl)-2H-1,2,3-triazol-2-yl)piperidin-1-yl)thiazole-5-carboxylate]	32.98
CC(C)(C)OC(=O)N1CCC(CC(=O)N2CCC(n3ncc(COc4ccc(-n5cnnn5)nc4)n3)CC2)CC1 [Example 50, tert-Butyl 4-(2-(4-(-((6-(1H-tetrazol-1-yl)pyridine-3-yloxy)methyl)-2H-1,2,3-triazol-2-yl)piperidin-1-yl)-2-oxoethyl)piperidine-1-carboxylate]	49.51
CCc1cnc(N2CCC(n3ncc(COc4ccc(-n5cnnn5)nc4)n3)C(C)C2)nc1 (stereo not drawn) [Example 85, 2-(4-(4-((6-(1H-Tetrazol-1-yl)pyridin-3-yloxy)methyl)-2H-1,2,3-triazol-2-yl)-3-methylpiperidin-1-yl)-5-ethylpyrimidine]	76.12
CC(C)(C)OC(=O)N1CCC(n2ncc(COc3ccc(-n4cnnn4)cc3)n2)CC1 [Example 3, 4-[4-(4-Tetrazol-1-yl-phenoxymethyl)-[1,2,3]triazol-2-yl]-piperidine-1-carboxylic acid tert-butyl ester]	79.02
C=CCOC(=O)N1CCC(n2ncc(COc3ccc(-n4cnnn4)cc3F)n2)CC1 [Example 76, Allyl 4-(4-((2-fluoro-4-(1H-tetrazol-1-yl)phenoxy)methyl)-2H-1,2,3-triazol-2-yl)piperidine-1-carboxylate]	56.39
Cc1cc(-n2cnnn2)ccc1OCc1cnn(C2CCN(c3ncc(Cl)cn3)CC2)n1 [Example 89, 5-chloro-2-(4-(4-((2-Methyl-4-(1H-tetrazol-1-yl)phenoxy)methyl)-2H-1,2,3-triazol-2-yl)piperidin-1-yl)pyrimidine]	48.60
CC(C)COC(=O)N1CCC(n2ncc(COc3ccc(-n4cnnn4)cc3F)n2)CC1 [Example 101, Isobutyl 4-(4-((2-fluoro-4-(1H-tetrazol-1-yl)phenoxy)methyl)-2H-1,2,3-triazol-2-yl)piperidine-1-carboxylate]	50.67
c1cc(-n2cnnn2)ncc1OCc1cnn(C2CCN(c3nc(C4CC4)no3)CC2)n1 [Example 29, 5-{2-[1-(3-Cyclopropyl-[1,2,4]oxadiazol-5-yl)-piperidin-4-yl]-2H-[1,2,3]triazol-4-ylmethoxy}-2-tetrazol-1-yl-pyridine]	48.76
FC(F)(F)c1ccc(N2CCC(n3ncc(COc4ccc(-n5cnnn5)nc4)n3)CC2)nc1 [Example 82, 2-(4-(4-((6-(1H-tetrazol-1-yl)pyridin-3-yloxy)methyl)-2H-1,2,3-triazol-2-yl)piperidin-1-yl)-5-(trifluoromethyl)pyridine]	64.90
O=C(c1cnc(N2CCC(n3ncc(COc4ccc(-n5cnnn5)nc4)n3)CC2)nc1)N1CCOCC1 [Example 61]	43.59
CC(C)S(=O)(=O)N1CCC(n2ncc(COc3ccc(-n4cnnn4)nc3)n2)CC1 [Example 45, 5-((2-(1-(Isopropylsulfonyl)piperidin-4-yl)-2H-1,2,3-triazol-4-yl)methoxy)-2-(1H-tetrazol-1-yl)pyridine]	67.58
CCCCS(=O)(=O)N1CCC(n2ncc(COc3ccc(-n4cnnn4)nc3)n2)CC1 [Example 46, 5-((2-(1-(Butylsulfonyl)piperidin-4-yl)-2H-1,2,3-triazol-4-yl)methoxy)-2-(1H-tetrazol-1-yl)pyridine]	79.78

same assay, conditions: 3 μM compound; relative to maximal activity of 5-Ethyl-2-{4-[4-(4-tetrazol-1-yl-phenoxymethyl)-thiazol-2-yl]-piperidin-1-yl}-pyrimidine (=100%); IC-GPCR2 stably expressing CHO cells, 30 minutes; 3 µM

SMILES	% activity at 3 μM [%]
CC(C)(C)OC(=O)N1C2CCC1CC(n1ncc(COc3ccc(-n4cnnn4)nc3)n1)C2 (stereo not drawn) [Example 73, exo-tert-Butyl 3-(4-((6-(1H-tetrazol-1-yl)pyridin-3-yloxy)methyl)-2H-1,2,3-triazol-2-yl)-8-azabicyclo[3.2.1]octane-8-carboxylate]	84.07
